Source: patent US9593107B2, “Dihydroquinoline-2-one derivatives” (Hoffmann-La Roche Inc., priority 2014, dated 2017)
pEC50: −log10 of the molar value. Blank lines part the entries; values can stand above or below the molecule they belong to.

Tests used:
[1] = test system: rat model of chronic kidney disease; details: cited from earlier work; for cardiac and aortic medial hypertrophy / renal effects of angiotensin II and high salt (albuminuria, azotemia, renovascular hypertrophy, glomerular injury, PAI-1 and osteopontin mRNA, tubulointerstitial fibrosis): rat, in vivo
[2] = test system: rats with experimental heart failure; details: rat, in vivo; cited from earlier work
human CYP11B2 = molecular target: T1, human CYP11B2 (Homo sapiens, UniProt P19099); experiment: G-402 cellular enzyme assay, human CYP11B2 (aldosterone release, HTRF); format: cell-based; details: G-402 cells expressing human CYP11B2; 1 μM Deoxycorticosterone
T1 construct: expressed in transfected cells
T1 sequence (P19099 25-503): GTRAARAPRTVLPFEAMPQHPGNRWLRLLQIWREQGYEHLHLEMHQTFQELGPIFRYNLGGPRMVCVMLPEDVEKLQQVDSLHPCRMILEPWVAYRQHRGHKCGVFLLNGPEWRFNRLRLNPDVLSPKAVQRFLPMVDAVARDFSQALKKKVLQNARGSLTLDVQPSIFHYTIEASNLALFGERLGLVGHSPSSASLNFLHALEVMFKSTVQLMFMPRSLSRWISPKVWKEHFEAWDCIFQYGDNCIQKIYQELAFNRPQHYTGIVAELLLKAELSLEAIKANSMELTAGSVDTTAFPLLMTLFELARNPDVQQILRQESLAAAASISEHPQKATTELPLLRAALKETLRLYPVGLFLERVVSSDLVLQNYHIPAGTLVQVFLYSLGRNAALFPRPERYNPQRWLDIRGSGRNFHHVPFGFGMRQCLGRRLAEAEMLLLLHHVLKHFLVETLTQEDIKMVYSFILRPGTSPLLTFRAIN
Excerpt: (§1) Herein we identified the use of the G-402 cell line as a host cell to ectopically express (transiently or stably) enzymes of the CYP11 family. Specifically we developed stable G-402 cells expressing ectopically human CYP11B1, human CYP11B2, human CYP11A1, cynmolgus CYP11B1 or cynomolgus CYP11B2 enzyme activity. Importantly the identified cell line G-402 expresses co-factors (adrenodoxin and adrenodoxin reductase) important for the activity of the CYP11 family and no relevant enzyme activity of the CYP11 family (in comparison to H295R cells) was detected in these cells. Therefore the G-402 cell line is uniquely suited as a host cell for the ectopic expression of enzymes from the CYP11 family.
(§2) The expression plasmids contains the ORF for either human/cyno CYP11B1 or CYP11B2 under the control of a suitable promoter (CMV-promoter) and a suitable resistance marker (neomycin). Using standard techniques the expression plasmid is transfected into G-402 cells and these cells are then selected for expressing the given resistance markers. Individual cell-clones are then selected and assessed for displaying the desired enzymatic activity using 11-Deoxycorticosterone (Cyp11B2) or 11-Deoxycortisol (Cyp11B1) as a substrate.
(§3) G-402 cells expressing CYP11 constructs were established as described above and maintained in McCoy's 5a Medium Modified, ATCC Catalog No. 30-2007 containing 10% FCS and 400 μg/ml G418 (Geneticin) at 37° C. under an atmosphere of 5% CO2/95% air.
(§4) Cellular enzyme assays were performed in DMEM/F12 medium containing 2.5% charcoal treated FCS and appropriate concentration of substrate (0.3-10 uM 11-Deoxycorticosterone, 11-Deoxycortisol or Corticosterone). For assaying enzymatic activity, cells were plated onto 96 well plates and incubated for 16 h. An aliquot of the supernatant is then transferred and analyzed for the concentration of the expected product (Aldosterone for CYP11B2; Cortisol for CYP11B1). The concentrations of these steroids can be determined using HTRF assays from CisBio analyzing either Aldosterone or Cortisol.
(§5) Inhibition of the release of produced steroids can be used as a measure of the respective enzyme inhibition by test compounds added during the cellular enzyme assay. The dose dependent inhibition of enzymatic activity by a compound is calculated by means of plotting added inhibitor concentrations (x-axes) vs. measured steroid/product level (y-axes). The inhibition is then calculated by fitting the following 4-parameter sigmoidal function (Morgan-Mercer-Flodin (MMF) model) to the raw data points using the least squares method:
(§6) [formula] wherein, A is the maximum y value, B is the EC50 factor determined using XLFit, C is the minimum y value and D is the slope value.
(§7) EC50 values for compounds claimed herein were tested with the G402-based assay system described. Cyp11B2 enzyme activity was tested in presence of 1 μM Deoxycorticosterone and variable amounts of inhibitors; Cyp11B1 enzyme activity was tested in presence of 1 μM Deoxycortisol and variable amounts of inhibitors.

human CYP11B1 = molecular target: T2, human CYP11B1 (Homo sapiens, UniProt P15538); experiment: G-402 cellular enzyme assay, human CYP11B1 (cortisol release, HTRF); format: cell-based; details: G-402 cells expressing human CYP11B1; 1 μM Deoxycortisol
T2 construct: expressed in transfected cells
T2 sequence (P15538 25-503): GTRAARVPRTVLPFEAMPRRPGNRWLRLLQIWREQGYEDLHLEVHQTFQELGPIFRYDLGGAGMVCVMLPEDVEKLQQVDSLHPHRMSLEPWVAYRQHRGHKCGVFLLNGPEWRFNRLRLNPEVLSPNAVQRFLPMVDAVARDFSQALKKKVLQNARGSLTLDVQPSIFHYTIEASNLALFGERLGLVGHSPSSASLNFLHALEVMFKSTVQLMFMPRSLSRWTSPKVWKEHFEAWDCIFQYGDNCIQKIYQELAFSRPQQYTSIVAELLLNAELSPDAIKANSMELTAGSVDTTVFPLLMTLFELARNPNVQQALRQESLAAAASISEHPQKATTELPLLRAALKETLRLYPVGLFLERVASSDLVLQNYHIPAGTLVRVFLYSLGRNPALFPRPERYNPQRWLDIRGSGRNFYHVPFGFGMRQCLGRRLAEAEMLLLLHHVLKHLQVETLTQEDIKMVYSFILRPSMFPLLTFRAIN
Excerpt: as §1, §2, §3, §4, §5, §6, §7

[3] = test system: patients with primary aldosteronism; details: oral; cited from earlier work

Structure (SMILES): N#Cc1ccc([C@H]2CCCc3cncn32)cc1 [FAD286]
plasma aldosterone ([1]; following 4 weeks of treatment): reduced | cardiac and aortic medial hypertrophy [1]: attenuated | renal effects of angiotensin II and high salt (albuminuria, azotemia, renovascular hypertrophy, glomerular injury, PAI-1 and osteopontin mRNA, tubulointerstitial fibrosis) [1]: prevented | blood pressure and cardiovascular function and structure [2]: improved | kidney function and morphology [2]: improve

Structure (SMILES): CC(=O)S[C@@H]1CC2=CC(=O)CC[C@]2(C)[C@H]2CC[C@@]3(C)[C@@H](CC[C@@]34CCC(=O)O4)[C@H]12 [spironolactone]
aldosterone ([1]; at 4 and 8 weeks of treatment): increased | angiotensin II and salt-stimulated PAI-1 mRNA expression ([1]; in the aorta and the heart): enhanced | cardiac and aortic medial hypertrophy [1]: attenuated | renal effects of angiotensin II and high salt (albuminuria, azotemia, renovascular hypertrophy, glomerular injury, PAI-1 and osteopontin mRNA, tubulointerstitial fibrosis) [1]: prevented

pEC50 (human CYP11B2): 8.66 | pEC50 (human CYP11B1): 6.44
Structure (SMILES): CN1C(=O)CCc2cc(-c3cncc(Cn4c(Cl)cccc4=O)c3)ccc21 [Example 17, 6-[5-(6-Chloro-2-oxo-2H-pyridin-1-ylmethyl)-pyridin-3-yl]-1-methyl-3,4-dihydro-1H-quinolin-2-one]

pEC50 (human CYP11B2): 7.94 | pEC50 (human CYP11B1): 6.30
Structure (SMILES): Cc1ccn(Cc2cncc(-c3cc4c(cc3F)N(C)C(=O)CC4)c2)c(=O)c1 [Example 20, 7-Fluoro-1-methyl-6-[5-(4-methyl-2-oxo-2H-pyridin-1-ylmethyl)-pyridin-3-yl]-3,4-dihydro-1H-quinolin-2-one]

pEC50 (human CYP11B2): 7.05 | pEC50 (human CYP11B1): 5.25
Structure (SMILES): CN1C(=O)CCc2cc(-c3cncc(Cn4cccnc4=O)c3)ccc21 [Example 13, 1-Methyl-6-[5-(2-oxo-2H-pyrimidin-1-ylmethyl)-pyridin-3-yl]-3,4-dihydro-1H-quinolin-2-one]

pEC50 (human CYP11B2): 7.98 | pEC50 (human CYP11B1): 6.29
Structure (SMILES): CN1C(=O)CCc2cc(-c3cncc(Cn4cc(Cl)ccc4=O)c3)ccc21 [Example 9, 6-[5-(5-Chloro-2-oxo-2H-pyridin-1-ylmethyl)-pyridin-3-yl]-1-methyl-3,4-dihydro-1H-quinolin-2-one]

pEC50 (human CYP11B2): 7.57 | pEC50 (human CYP11B1): 5.98
Structure (SMILES): Cc1ccn(Cc2cncc(-c3ccc4c(c3)CCC(=O)N4C)c2)c(=O)c1 [Example 8, 1-Methyl-6-[5-(4-methyl-2-oxo-2H-pyridin-1-ylmethyl)-pyridin-3-yl]-3,4-dihydro-1H-quinolin-2-one]

Structure (SMILES): N#Cc1ccc([C@H]2CCc3cncn32)c(F)c1 [LCI699]
blood pressure [3]: mildly decreased | circulating aldosterone levels [3]: significantly lower | hypokalemia [3]: corrected | selectivity (effects on the glucocorticoid axis) [3]: poor selectivity
